Test results: a melting point compilation (Tetko et al.; mined from patent text by program, amines drawn as free bases though some values may be those of a salt)

melting point [°C] | SMILES
122 to 125 | COc1c(N2C[C@H]3C(CF)C[C@@]3(N)C2)c(F)cc2c(=O)c(C(=O)O)cn([C@@H]3C[C@@H]3F)c12 (some centres not stated)
170 to 182 | COC(=O)C1CCC2C3CCC4CC(O)C(OC)CC4(C)C3C(=O)CC12C (configuration not stated)
192 to 195 | COc1ccc(C(=O)c2oc3cccc(O)c3c2C)cc1
144 to 146 | O=C1N(CCCCl)c2ccccc2C12COc1cc3c(cc12)OCO3 (configuration not stated)
65 to 66 | CCOC(=O)C(C)NC(=O)c1cc(C)on1 (configuration not stated)
112 | CCCCCCCCCC(=O)OCc1cccn2c(=O)c(CCN3CCC(N4Cc5ccc(F)cc5O4)CC3)c(C)nc12
105 to 107 | Cc1ccccc1C1CC(=O)c2c(C(F)(F)F)coc2C1 (configuration not stated)
105 to 109 | CCOC(=O)C1CN(c2cc3ccccc3c(=O)[nH]2)CCN1C (configuration not stated)
97 to 98 | CCOC(=O)C1CCN(C(N)=S)CC1
150 | CN1CCCCC1CCc1ccccc1NC(=O)c1ccc(C(F)(F)F)cc1 (configuration not stated)
216 | CC(=O)OCC(=O)C1(OC(C)=O)CCC2C3CC(C)C4=CC(=O)C=CC4(C)C3C(O)CC21C (configuration not stated)
99 to 100 | OC(CCCN1CCC(c2ncco2)CC1)c1ccc(F)cc1 (configuration not stated)
114 to 115 | CCOC(=O)C1CN(C(=O)c2cc(OC)c(OC)c(OC)c2)CCN1 (configuration not stated)
150 to 153 | CCOC(=O)c1cn(C2CC2)c2nc(N3C[C@@H](CN(CC)C(=O)C(F)(F)F)[C@@H](F)C3)c(F)cc2c1=O (relative stereo)
164 to 166 | COc1ccc(COc2ccc(C(=O)N3CCc4cc(/C=C/CN(C)C)ccc43)cc2)cc1
86 to 87 | CCCc1c(OCCCOc2ccc(C(=O)OCC)cc2)ccc(C(C)=O)c1O
128 to 129 | COCCc1nc2c(N)nc3ccccc3c2n1CCCCC(=O)N1CCOCC1
121 to 123 | CCOC(=O)CCCCOc1ccc([N+](=O)[O-])c(C=C2C(=O)NC(=O)N2C)c1
184 to 196 | Nc1cccc(-c2ccc(-c3cccc(CN4CC5C(N)C5C4)c3)cc2)n1 (configuration not stated)
215 to 219 | Cc1cc(-c2ccc(S(C)(=O)=O)cc2)n(-c2ccc(Br)cc2)c1C
137 to 142 | COc1ccc(N2CCN(c3c(C)c(C)c4c(c3C)CC(C)(CN3CCOCC3)O4)CC2)cc1 (configuration not stated)
> 300 | Cc1nc(N)nc(N)c1N1CCN(c2ccc(C#N)cc2)CC1
62 to 64 | CC(C)OC(=S)NC1(N=NC(C)(C)C)CCCCC1
147 to 148 | COc1cc2c(cc1O)C(=O)CCC2

melting point [°C] | SMILES
275 to 277 | C#CCNC(=O)c1ncn2c1CN(C)C(=O)c1sccc1-2
214 to 217 | NC(=O)Cc1ccc2c(c1)C(=O)Cc1cccnc1O2
166 to 168 | COC(=O)c1cc2c3cccc(Cl)c3n(C)c2s1
197 to 199 | CC12CCC(O)CC1=CCC1C2CCC2(C)C(n3cccn3)=CCC12 (configuration not stated)
168 to 169 | O=C(Nc1cccnn1)N1CCN(c2nccc(-c3ccc(F)cc3)n2)CC1
300 to 302 | O=C(O)c1ccc(C#Cc2ccc(OCC(O)CO)c(C34CC5CC(CC(C5)C3)C4)c2)cc1 (configuration not stated)
125 to 127 | O=C(NC(=O)N1CCSC1c1ccccc1OCCN1CCN(c2cccc(F)c2)CC1)c1ccccc1 (configuration not stated)
132 to 134 | CCCC(=O)OCC(=O)C1(OC(=O)COC)CCC2C3CC(C)C4=CC(=O)C=CC4(C)C3C(O)CC21C (configuration not stated)
108 to 111 | COc1ccc(C2COCCOC2)c2sc(NC(=O)c3ccnc(CN4CCCC4)c3)nc12
147 to 148 | CC(C)(C)C1=CC(=Cc2ccc(C#N)cc2)C=C(C(C)(C)C)C1=O
103 to 107 | CC1OC2c3cc(F)ccc3N3CCC2(CC3)O1 (configuration not stated)
156 to 158 | CC(C)(C)COc1nc(N2CCNCC2)nc(N2CCS(=O)CC2)c1[N+](=O)[O-]
76 to 77 | Cc1c(C)c2c(c(C)c1N)CC(C)(CN1CCN(C)CC1)O2 (configuration not stated)
221 to 224 | CC1(C)CC(Oc2ccc(O)nn2)c2cc(C#N)ccc2O1 (configuration not stated)
235 to 240 | CC1(C)C(=NO)C(=NO)C(C)(C)N1C(=O)c1ccccc1
114 to 116 | O=C(C1NCCc2sccc21)N1CCCC1 (configuration not stated)
211 | CCOCc1nc2c(N)nc3cc(Br)ccc3c2n1CCCCNC(=O)NC(C)C
137 to 138 | Cc1ccccc1Nc1c([N+](=O)[O-])cnc2ccccc12
140 to 141 | Cn1ccc2cc(C(=O)NN)ccc21
126 | COc1ccc(OC)c2c1CC(O)CC2O (configuration not stated)
256 to 258 | O=C(O)c1cn2c3c(cccc3c1=O)CCC2
182 to 184 | COC(=O)c1nc(-c2ccc(Cl)c(OC)c2F)cc(NC(C)=O)c1C
211 | COc1cccc(-c2nc(N)ncc2-c2ccc(=O)n(C(C)C)n2)c1

Second part, the molecule before the results:

SMILES | melting point [°C]
CC(C)(C)OC(=O)NC(Cc1cc(C(=O)c2cc(C(F)(F)F)cc(C(F)(F)F)c2)ccc1[N+](=O)[O-])C(=O)OC(C)(C)C (configuration not stated) | 176 to 177
CC(C)CCNC(=O)c1ccccc1-c1ccccc1CNS(=O)(=O)c1ccc(F)cc1 | 149
CCCC#CC[C@H](C[C@H](N)C(=O)O)C(=O)O | 200 to 201
C=CC(=O)OCC=C(C)CCC=C(C)CCC=C(C)CCC=C(C)CCC=C(C)CCC=C(C)CCC=C(C)CCC=C(C)CCC=C(C)CCC=C(C)C | 32 to 32.8
COc1ccc(SCCCCNC(P(=O)(O)O)P(=O)(O)O)cc1 | 188 to 189
OC(=S)CCc1ccc(Cl)c(Cl)c1 | 63 to 64
C=CCNc1nc(NCc2ccccc2)nc2ccc([N+](=O)[O-])cc12 | 216 to 217
O=C1NN(C(=O)c2cc3ccccc3[nH]2)C(c2ccccc2)C1c1ccccc1 (configuration not stated) | 248 to 250
COC(=O)c1cc2c(O)c(C(=O)NCc3ccc(Cl)cc3)cnc2s1 | 238 to 240
Cc1ccc(F)c(CSc2nc(N[C@H](C)CO)c3ncc(=O)[nH]c3n2)c1 | 202 to 204
COc1ccc(C(CSc2ccccc2N)C(=O)O)cc1 (configuration not stated) | 118
COC1(OC)CC(c2ccccc2)N(O)C(c2ccccc2)C1 (configuration not stated) | 172 to 175
CCOC(=O)Nc1ccc2c(c1)CC[C@H](CCC(F)(F)F)O2 | 88
COc1ccccc1NC(=O)Nc1nc(Nc2ccccc2-c2ccccc2)nc(N(CCC(=O)O)Cc2ccccc2C(F)(F)F)n1 | 216 to 219
O=C1c2ccccc2C(=O)C1(O)c1ccccc1O | 155 to 159
CCC[C@H]1CCC[C@H](N2C(=O)c3ccccc3C2=O)C(=O)N1 | 146 to 151
CC(C)(C)OC(=O)Nc1cc(-c2nnc(SCc3cccc(F)c3)o2)ccn1 | 237 to 238
CCCc1cc(O)cc2nc(-c3ccc(O)cc3)oc12 | 110 to 112
Brc1ccc2[nH]cc(Cc3cccnc3)c2c1 | 122
C=CC(OC(C)OCC)C(NC(=O)OC(C)(C)C)c1ccccc1 (configuration not stated) | 66 to 72
CC(=O)OCCn1c(=O)oc(=O)c2ccccc21 | 128 to 131
O=C(CC(=O)C(F)(F)F)Nc1cc(-c2ccncc2)n[nH]1 | 364 to 366
CC(NC(=O)Cc1cc(F)cc(F)c1)C(=O)NC1C(=O)NC(c2ccccn2)c2ccccc21 (configuration not stated) | 100
COCc1cnc(C(=O)O)c(C(=O)O)c1 | 161 to 162
CCOC(=O)N=C(N)c1ccc(OCc2cccc(COc3ccc(C(C)(C)c4ccccc4)cc3)c2)cc1 | 99
CCCCCCCCCCC(O)COc1ccc(N2CCS(=O)(=O)CC2)cc1 (configuration not stated) | 84
O=C(NCCCc1ccccc1)Oc1ccccc1 | 55 to 56
CC(C)(Oc1ccc(C#N)cc1)C(O)=Cc1ccncn1 | 115 to 117

SMILES | melting point [°C]
CCN(CC)CCN1C(=O)c2ccc(NC(C)=O)cc2Oc2cc(C(F)(F)F)ccc21 | 75 to 85
CCCCOC(Cc1ccc(OCCN2c3ccccc3Oc3ccccc32)cc1)C(=O)O (configuration not stated) | 84 to 88
CCCC(O)(CC)C(C)=NO (configuration not stated) | 59
Clc1ccc(OC(c2ccc(Cl)cc2)C(Cl)(Cl)Cl)cc1 (configuration not stated) | 101
Clc1ccc(N=Cc2ccc(Cl)c3cc(Cl)cnc23)c(Cl)c1 | 156
CCOC(=O)c1ccc(OCCCCCCCCCCCCCCOc2ccc(Cl)cc2)cc1 | 72.5 to 73.5
CS(=O)c1ccc(COS(C)(=O)=O)cc1 (configuration not stated) | 63 to 65
CCOc1ccccc1N(C[C@H]1CC[C@H](CN(C(=O)Nc2ccc(N(C)C)cc2)c2ccccc2OCC)CC1)C(=O)Nc1ccc(N(C)C)cc1 | 153 to 155
CCCCCCCCNC(=O)N(C)C[C@H](O)[C@@H](O)[C@H](O)[C@H](O)CO | 111
COc1cccc(NC(=O)c2cccs2)c1 | 139 to 145
ONC(=S)C=Cc1cccc2ccccc12 | 129 to 130
Cc1c(Cc2cccc(C(F)(F)F)c2)sc2c(-c3cccc(C(=O)NCCO)c3)cccc12 | 140 to 145
C[C@H](Nc1c(-c2c(F)cc(OCCCN(C)C)cc2F)c(Br)nc2ncnn12)C(F)(F)F | 40 to 42
NC(=NO)c1c(F)cccc1C(F)(F)F | 155 to 157
CCCCc1nc2sccc2n1Cc1ccc(-c2ccccc2C(=O)O)cc1 | 203
CC(=O)Oc1cccc(Br)c1 | 33 to 40
NCc1c(N)cccc1Oc1ccccc1 | 69 to 71
CS(=O)(=O)C(=C1CN(C(c2ccccc2)c2ccccc2)C1)c1cccc(F)c1F | 208
CC(CO)(CO)NCc1c2ccccc2cc2cc3ccccc3cc12 | 198 to 199
COC(=O)[C@@H]1C[C@H](C(=O)O)Nc2cc(Cl)c(Cl)c(Cl)c21 (relative stereo) | 210
COC(=O)/C=C/c1ccc(NC(=O)CCCBr)nc1 | 156 to 173
CCCn1c(=O)n(Cc2ccccc2)c(=O)c2nc(-c3ccc(/C=C/C(=O)O)cc3)[nH]c21 | > 300
Fc1ccc(C=C(c2ccccc2)C(F)(F)F)cc1 | 35 to 41
O=C(CCCCl)c1ccc2ccccc2c1 | 43 to 44
CCCOc1ccc(C)cc1C(N)=O | 112 to 115
N#CCc1cccc2nnsc12 | 78 to 80
CCCSc1nc(C)c(CC(=O)O)n1-c1ccccc1Cl | 68 to 71
